Test results reported in the NIST ThermoML archive (doi:10.1016/j.fluid.2017.06.019).

Conditions: Coaxial cylinder method

CCC [propane]
thermal conductivity [W/m/K]
Conditions	367.32 K	368.46 K
2968 kPa, Gas	–	0.03214
2972 kPa, Gas	–	0.03214
2978 kPa, Gas	–	0.03213
3000 kPa, Gas	–	0.03223
3030 kPa, Gas	–	0.03238
3100 kPa, Gas	–	0.03275
3150 kPa, Gas	–	0.03302
3200 kPa, Gas	–	0.03331
3250 kPa, Gas	–	0.0336
3300 kPa, Gas	–	0.03395
3350 kPa, Gas	–	0.03428
3400 kPa, Gas	–	0.03471
3500 kPa, Gas	–	0.03552
3575 kPa, Gas	–	0.03626
3650 kPa, Gas	–	0.03704
3700 kPa, Gas	–	0.03759
3720 kPa, Gas	–	0.03785
3730 kPa, Gas	–	0.03799
3740 kPa, Gas	–	0.0381
3750 kPa, Gas	–	0.03825
3755 kPa, Gas	–	0.03832
3765 kPa, Gas	–	0.03844
3775 kPa, Gas	–	0.03858
3785 kPa, Gas	–	0.03873
3790 kPa, Gas	–	0.03878
3800 kPa, Gas	–	0.03892
3850 kPa, Gas	–	0.03974
3900 kPa, Gas	–	0.04073
3950 kPa, Gas	–	0.04194
4000 kPa, Gas	–	0.04351
4038 kPa, Gas	–	0.04518
4060 kPa, Gas	–	0.04654
4066 kPa, Liquid	0.1808	–
4067 kPa, Liquid	0.1761	–
4068 kPa, Liquid	0.1712	–
4069 kPa, Liquid	0.1669	–
4070 kPa, Liquid	0.1627	–
4071 kPa, Liquid	0.1586	–
4072 kPa, Liquid	0.1546	–
4073 kPa, Liquid	0.1511	–
4074 kPa, Liquid	0.1475	–
4075 kPa, Liquid	0.1439	–
4076 kPa, Liquid	0.1405	–
4077 kPa, Liquid	0.1378	–
4078 kPa, Liquid	0.1345	–
4079 kPa, Liquid	0.1317	–
4080 kPa, Gas	–	0.04809
4080 kPa, Liquid	0.129	–
4081 kPa, Liquid	0.127	–
4082 kPa, Liquid	0.1249	–
4083 kPa, Liquid	0.123	–
4084 kPa, Liquid	0.121	–
4085 kPa, Liquid	0.1189	–
4086 kPa, Liquid	0.1166	–
4087 kPa, Liquid	0.115	–
4088 kPa, Liquid	0.1136	–
4089 kPa, Liquid	0.1118	–
4090 kPa, Liquid	0.1105	–
4091 kPa, Liquid	0.109	–
4092 kPa, Liquid	0.1085	–
4093 kPa, Liquid	0.1068	–
4094 kPa, Liquid	0.1051	–
4095 kPa, Liquid	0.1042	–
4096 kPa, Gas	–	0.04969
4096 kPa, Liquid	0.1034	–
4097 kPa, Liquid	0.1027	–
4098 kPa, Liquid	0.1021	–
4099 kPa, Gas	–	0.05013
4099 kPa, Liquid	0.1016	–
4100 kPa, Liquid	0.1007	–
4101 kPa, Liquid	0.09965	–
4102 kPa, Gas	–	0.0505
4102 kPa, Liquid	0.09856	–
4103 kPa, Liquid	0.09755	–
4104 kPa, Gas	–	0.05078
4104 kPa, Liquid	0.09655	–
4105 kPa, Liquid	0.09562	–
4106 kPa, Gas	–	0.05104
4106 kPa, Liquid	0.0947	–
4107 kPa, Liquid	0.0938	–
4108 kPa, Liquid	0.09296	–
4109 kPa, Liquid	0.09214	–
4110 kPa, Liquid	0.09124	–
4112 kPa, Gas	–	0.05196
4112 kPa, Liquid	0.08967	–
4114 kPa, Gas	–	0.05236
4114 kPa, Liquid	0.0892	–
4115 kPa, Gas	–	0.0525
4116 kPa, Gas	–	0.0527
4116 kPa, Liquid	0.08674	–
4117 kPa, Gas	–	0.05291
4118 kPa, Gas	–	0.05307
4118 kPa, Liquid	0.08545	–
4119 kPa, Gas	–	0.05335
4120 kPa, Gas	–	0.05349
4120 kPa, Liquid	0.08412	–
4121 kPa, Gas	–	0.05378
4122 kPa, Gas	–	0.05392
4122 kPa, Liquid	0.08294	–
4123 kPa, Gas	–	0.05418
4124 kPa, Gas	–	0.0565
4124 kPa, Liquid	0.08176	–
4125 kPa, Gas	–	0.0589
4126 kPa, Gas	–	0.06178
4126 kPa, Liquid	0.08067	–
4127 kPa, Gas	–	0.06494
4128 kPa, Gas	–	0.06863
4128 kPa, Liquid	0.07964	–
4129 kPa, Gas	–	0.07284
4130 kPa, Gas	–	0.07749
4130 kPa, Liquid	0.07867	–
4131 kPa, Gas	–	0.08276
4132 kPa, Gas	–	0.08878
4132 kPa, Liquid	0.07775	–
4133 kPa, Gas	–	0.09573
4134 kPa, Gas	–	0.1033
4134 kPa, Liquid	0.07688	–
4135 kPa, Gas	–	0.1122
4136 kPa, Gas	–	0.1221
4136 kPa, Liquid	0.07609	–
4137 kPa, Gas	–	0.1337
4138 kPa, Gas	–	0.1478
4138 kPa, Liquid	0.07523	–
4139 kPa, Gas	–	0.1619
4140 kPa, Gas	–	0.1793
4140 kPa, Liquid	0.07455	–
4141 kPa, Gas	–	0.2022
4142 kPa, Gas	–	0.214
4142 kPa, Liquid	0.0738	–
4143 kPa, Gas	–	0.2272
4144 kPa, Gas	–	0.241
4144 kPa, Liquid	0.07315	–
4145 kPa, Liquid	–	0.2612
4146 kPa, Liquid	0.0725	0.2405
4147 kPa, Liquid	–	0.2228
4148 kPa, Liquid	0.07187	0.2065
4149 kPa, Liquid	–	0.1933
4150 kPa, Liquid	0.07132	0.1809
4151 kPa, Liquid	–	0.1745
4152 kPa, Liquid	0.07076	0.1686
4153 kPa, Liquid	–	0.164
4154 kPa, Liquid	0.07028	0.1581
4155 kPa, Liquid	–	0.1533
4156 kPa, Liquid	0.06982	0.1489
4157 kPa, Liquid	–	0.1449
4158 kPa, Liquid	–	0.141
4159 kPa, Liquid	–	0.1373
4160 kPa, Liquid	0.06894	0.1338
4161 kPa, Liquid	–	0.1305
4162 kPa, Liquid	0.06852	0.1273
4163 kPa, Liquid	–	0.1243
4164 kPa, Liquid	0.06814	0.1214
4165 kPa, Liquid	–	0.12
4166 kPa, Liquid	0.06773	–
4168 kPa, Liquid	0.0674	–
4170 kPa, Liquid	0.06707	–
4172 kPa, Liquid	0.06674	–
4174 kPa, Liquid	0.06646	–
4176 kPa, Liquid	0.0662	–
4178 kPa, Liquid	0.06599	–
4180 kPa, Liquid	0.06574	–
4182 kPa, Liquid	0.06551	–
4184 kPa, Liquid	0.0653	–
4186 kPa, Liquid	0.06509	–
4188 kPa, Liquid	0.0649	–
4190 kPa, Liquid	0.06474	–
4192 kPa, Liquid	0.0647	–
4194 kPa, Liquid	0.06462	–
4196 kPa, Liquid	0.06458	–
4198 kPa, Liquid	0.06458	–
4200 kPa, Liquid	0.06456	–
4202 kPa, Liquid	0.06454	–
4204 kPa, Liquid	0.06452	–
4206 kPa, Liquid	0.0645	–
4208 kPa, Liquid	0.06448	–
4210 kPa, Liquid	0.06446	–
4212 kPa, Liquid	0.06444	–
4214 kPa, Liquid	0.06445	–
4216 kPa, Liquid	0.06443	–
4218 kPa, Liquid	0.06443	–
4220 kPa, Liquid	0.06439	–
4222 kPa, Liquid	0.06437	–
4224 kPa, Liquid	0.06435	–
4226 kPa, Liquid	0.06433	–
4228 kPa, Liquid	0.06435	–
4230 kPa, Liquid	0.06433	–
4232 kPa, Liquid	0.06431	–
4234 kPa, Liquid	0.06432	–
4236 kPa, Liquid	0.06432	–
4238 kPa, Liquid	0.0643	–
4240 kPa, Liquid	0.06428	–
4250 kPa, Liquid	0.06424	–
4260 kPa, Liquid	0.0642	–
4270 kPa, Liquid	0.06416	–
4280 kPa, Liquid	0.06413	–
4290 kPa, Liquid	0.06409	–
4300 kPa, Liquid	0.06407	–
4350 kPa, Liquid	0.06399	–
4400 kPa, Liquid	0.06399	–
4450 kPa, Liquid	0.06405	–
4500 kPa, Liquid	0.06413	–
4550 kPa, Liquid	0.06426	–
4600 kPa, Liquid	0.0644	–
4650 kPa, Liquid	0.06452	–
4700 kPa, Liquid	0.06466	–
4770 kPa, Liquid	0.06483	–
4800 kPa, Liquid	0.06498	–
4850 kPa, Liquid	0.06516	–
4900 kPa, Liquid	0.06532	–
4950 kPa, Liquid	0.06554	–
4976 kPa, Liquid	0.06564	–
5077 kPa, Liquid	0.06597	–
